Where “and” joins values, the source holds several entries; their conditions need not be identical. Equal entries are not always repeated.
The compounds below were run against Prostaglandin E2 receptor EP2 subtype (Homo sapiens) (UniProt P43116) (assay: EP2 receptor modulators, dose response, cell-based, human EP2, PGE2 EC50 shift (AID 1421)). Conditions: EP2-expressing cells, PGE2 EC50 shift by compound; measured here: PGE2 EC50 at 6.7 uM compound.
Prostaglandin E2 receptor EP2 subtype (Homo sapiens), sequence (P43116 whole entry, looked up): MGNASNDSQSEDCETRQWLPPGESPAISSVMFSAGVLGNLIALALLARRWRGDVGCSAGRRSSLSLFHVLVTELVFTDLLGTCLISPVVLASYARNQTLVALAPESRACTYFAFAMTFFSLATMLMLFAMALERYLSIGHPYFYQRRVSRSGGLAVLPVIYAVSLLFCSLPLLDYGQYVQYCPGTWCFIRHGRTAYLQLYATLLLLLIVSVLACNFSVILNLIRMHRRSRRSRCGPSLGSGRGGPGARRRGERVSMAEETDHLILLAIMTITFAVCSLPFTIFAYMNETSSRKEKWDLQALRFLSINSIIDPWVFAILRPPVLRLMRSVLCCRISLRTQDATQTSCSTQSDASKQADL
Compound `O=C(Nc1ccccc1Cl)N1CCSc2ccccc21` has a PGE2 EC50 with compound of 1.55 nM.
`CCCN(CCC)C(C)C(=O)NCC1(c2ccccc2)CCCC1` (stereo unspecified) showed a PGE2 EC50 with compound of 0.94 nM.
`COc1ccc(-c2csc3nc(C)nc(N4CCC(C)CC4)c23)cc1OC` gave a PGE2 EC50 with compound of 0.95 nM.
`CCOc1cc(S(=O)(=O)NCCc2cccc(C)c2)c(OCC)cc1-n1cnnn1` gave a PGE2 EC50 with compound of 1.21 nM.
`CSc1ccccc1NC(=O)CN(C)Cc1cccc(Cl)c1` gave a PGE2 EC50 with compound of 0.97 nM.
With `CC1C(c2ccccc2)N(C)C(c2ccccc2)C(C)C1(O)C#Cc1ccccc1` (stereo unspecified) the PGE2 EC50 with compound was 0.32 nM.
With `CCC(C)N(C)C(=O)c1cc2ccccc2c(-c2ccccc2Cl)n1` (stereo unspecified) the PGE2 EC50 with compound was 0.93 nM and 1.18 nM.
In the case of `COc1ccccc1/C=N/N(C(C)=O)c1nc(-c2ccc(F)cc2)cs1`, the PGE2 EC50 with compound is reported as 1.1 nM.
`CCC1(CC)Cc2ccccc2-c2nc(NCCO)[nH]c(=O)c21` showed a PGE2 EC50 with compound of 1.25 nM.
Compound `CCCc1cc(-c2n[nH]c(=S)n2Cc2ccccc2)cs1` has a PGE2 EC50 with compound of 1.36 nM.
`CCc1c(C)nc2ccc(Br)cc2c1SCCC#N` was tested, and the PGE2 EC50 with compound was 2.61 nM.
With `O=c1cc(N2CCCCC2)c(-c2ccccc2)nn1Cc1cccc(F)c1` the PGE2 EC50 with compound was 0.33 nM.
For `O=C(O)COc1ccc2occ(C(=O)c3ccccc3)c2c1`, the PGE2 EC50 with compound was 0.86 nM.
Work on `CC(C)(Sc1ccc(CCN(CCCCC2CCCCC2)C(=O)NC2CCCCC2)cc1)C(=O)O` yielded a PGE2 EC50 with compound of 1.23 nM.
Compound `CCOc1ccccc1NC(=O)c1ccccc1-c1nc(-c2ccccc2)no1` has a PGE2 EC50 with compound of 1.14 nM.
Compound `CCOc1ccccc1NC(=O)c1c(Br)cnn1C` has a PGE2 EC50 with compound of 1.08 nM.
`COc1ccc(-c2nc3ccccc3n2Cc2ccccc2)cc1` gave a PGE2 EC50 with compound of 1.05 nM.
For `Cc1nc2c(c(C)nn2-c2ccccc2)c(C)c1Cl`, the PGE2 EC50 with compound was 0.69 nM.
`CCOc1ccc(OCC)c(NC(=O)CN2CCN(c3cccc(C)c3)CC2)c1` showed a PGE2 EC50 with compound of 1.02 nM.
In the case of `Cc1ccc(CN2C(=O)/C(=C\c3ccc(C(=O)NCc4cccnc4)cc3)Oc3ccccc32)cc1`, the PGE2 EC50 with compound is reported as 0.95 nM.
For `Cc1cc(NC(=O)C2=C(O)c3ccccc3S(=O)(=O)N2C)no1`, the PGE2 EC50 with compound was 1.8 nM.
`CCn1c(=NC(=O)c2ccc(S(=O)(=O)N3CCOCC3)cc2)sc2cccc(OC)c21` was tested, and the PGE2 EC50 with compound was 0.91 nM.
With `CSc1nnc(CSCc2ccc(Cl)cc2Cl)n1-c1ccccc1` the PGE2 EC50 with compound was 2.63 nM.
`COC(=O)c1ccccc1NC(=O)C(C)Oc1ccccc1` (stereo unspecified) gave a PGE2 EC50 with compound of 0.9 nM.
Work on `CCOC(=O)c1c(/N=C/C2C(=O)CCCC2=O)sc2c1CCCC2` yielded a PGE2 EC50 with compound of 1.32 nM.
`C#CCN1C(C)=C(C(=O)OC)C(c2cccc([N+](=O)[O-])c2)C(C(=O)OCC)=C1C` (stereo unspecified) showed a PGE2 EC50 with compound of 2.62 nM.
`Nn1cnc2c(c1=O)C1(CCCCC1)Cc1ccccc1-2` was tested, and the PGE2 EC50 with compound was 0.81 nM.
`COCCCN(C(=O)c1ccco1)c1nc(-c2cc(OC)ccc2OC)cs1` showed a PGE2 EC50 with compound of 0.9 nM.
With `CCOP(=O)(OCC)c1nc(-c2ccc(Cl)cc2)oc1NCc1ccccc1` the PGE2 EC50 with compound was 0.73 nM.
For `O=C(CSc1nnc(-c2cc3ccccc3cc2O)n1Cc1ccco1)c1ccc(F)cc1`, the PGE2 EC50 with compound was 1.35 nM.
Work on `O=C(c1ccc2c(c1)OCO2)N(Cc1cccs1)C1(C(=O)NC2CCCCC2)CCCCC1` yielded a PGE2 EC50 with compound of 1.08 nM.
With `CC(C)Sc1cc(N2CCOCC2)nc(-c2ccc(Cl)cc2)n1` the PGE2 EC50 with compound was 1.02 nM.
`Cc1ccc(-c2nnc(N3CCC(C)CC3)c3ccccc23)cc1` gave a PGE2 EC50 with compound of 1.39 nM.
Work on `c1ccc(-c2csc3ncnc(N4CCc5ccccc5C4)c23)cc1` yielded a PGE2 EC50 with compound of 1.1 nM.
Work on `Clc1ccccc1C1NCc2ccccc2-n2cccc21` (stereo unspecified) yielded a PGE2 EC50 with compound of 0.34 nM.
`O=C(/C(=C/O)N=Nc1ccccc1)c1cccs1` was tested, and the PGE2 EC50 with compound was 1.19 nM.
In the case of `O=C(O)c1nc2nc(Cl)c(Cl)nc2[nH]1`, the PGE2 EC50 with compound is reported as 1.28 nM.
`Cc1cc(C)c2nc(N3CCCN(C(=O)c4ccco4)CC3)c(C#N)cc2c1` gave a PGE2 EC50 with compound of 0.64 nM.
In the case of `O=C1CCCc2ccccc2N1Cc1c(Cl)cccc1Cl`, the PGE2 EC50 with compound is reported as 1.04 nM.
In the case of `CCOC(=O)Nc1sc2c(c1C(=O)OCC)CCC2`, the PGE2 EC50 with compound is reported as 0.84 nM.
`COCCn1c(SCC(=O)NCCc2ccccc2)nnc1-c1ccco1` was tested, and the PGE2 EC50 with compound was 1.4 nM.

From PubChem BioAssay AID1421 (Emory University Molecular Libraries Screening Center, 2008)
